Data set [1] can be described thus: Human Plasma Protein Binding (Test B). It is filed as in vitro ADME. The note with it: fraction unbound (fu). Put shortly: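 Values given as % free (fu) in human plasma, using the method of Wernevik et al. (2020). For compounds tested more than once, the arithmetic mean is given.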
A short description of another data set: Solubility (Test F). It is filed as physicochemical. To be noted: arithmetic mean if run multiple times. The protocol: The assay was conducted according to the Solubility Assay described in pages 164-167 of Wernevik, J. et al., “A Fully Integrated Assay Panel for Early Drug Metabolism and Pharmacokinetics Profiling”, Assay and Drug Development Technologies, 2020, 18(4), 157-179. Data are reported in Table 36 as solubility ([…]. Where the assay was run multiple times for the same compound, the arithmetic mean is reported.

Data set [2] is described as follows: Rat Hepatocyte Stability (Test E). The format is in vitro ADME. The note with it: rat, hepatocytes, geometric mean if run multiple times. The method in brief:
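Intrinsic clearance in rat hepatocytes, expressed as μl/min/10^6 cells, following the literature integrated DMPK panel method. Repeat determinations combined as geometric mean.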

Data set [3] is described as follows: Human Liver Microsomal Stability (Test C). It is filed as in vitro ADME. The note with it: human, liver microsomes. The method in brief: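 CLint (μl/min/mg protein) derived from compound depletion in human liver microsomes following a published standardized early-DMPK protocol; replicate determinations given as arithmetic mean.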
A further data set addresses T1, human RXFP1 (Homo sapiens, UniProt Q9HBX9).
T1 sequence (Q9HBX9 1-757): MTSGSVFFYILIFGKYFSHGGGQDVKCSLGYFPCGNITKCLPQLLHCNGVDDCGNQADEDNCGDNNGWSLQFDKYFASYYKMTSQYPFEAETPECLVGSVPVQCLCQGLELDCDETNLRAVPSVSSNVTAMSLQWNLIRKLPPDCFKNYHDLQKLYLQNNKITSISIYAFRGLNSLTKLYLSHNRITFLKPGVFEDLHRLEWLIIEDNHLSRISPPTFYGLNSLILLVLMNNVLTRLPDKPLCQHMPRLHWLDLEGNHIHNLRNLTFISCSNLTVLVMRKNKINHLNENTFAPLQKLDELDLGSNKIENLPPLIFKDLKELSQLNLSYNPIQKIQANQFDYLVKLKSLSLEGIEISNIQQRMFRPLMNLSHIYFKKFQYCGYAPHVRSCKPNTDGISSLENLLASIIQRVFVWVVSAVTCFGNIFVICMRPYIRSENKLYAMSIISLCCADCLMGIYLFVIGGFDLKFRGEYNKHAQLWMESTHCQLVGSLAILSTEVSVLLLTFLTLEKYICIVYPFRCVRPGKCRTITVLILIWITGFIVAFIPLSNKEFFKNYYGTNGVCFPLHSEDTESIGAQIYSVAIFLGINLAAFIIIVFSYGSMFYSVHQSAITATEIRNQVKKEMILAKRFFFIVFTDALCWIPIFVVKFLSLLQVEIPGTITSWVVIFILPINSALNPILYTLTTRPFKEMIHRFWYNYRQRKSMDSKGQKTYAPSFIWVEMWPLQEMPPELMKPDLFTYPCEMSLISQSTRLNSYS
Briefly: RXFP1 Hu cAMP (Test A). The format is cell-based. More on the design: expressed in transfected cells; host or cells: Jump-In T-REx CHO-K1 cells (ThermoFisher), induced with 10 ng/ml doxycycline for 24 h. To be noted: RXFP1 Hu cAMP; for EC50: read-out: Test A EC50. Put shortly:
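Read-out is HTRF signal, inversely proportional to cAMP, converted to cAMP amount by standard curve. Stimulation occurred in inducible CHO-K1 cells expressing the human receptor with phosphodiesterases blocked by 0.5 mM IBMX.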

In brackets after ≈: the same amount, converted by molar mass.

Broadly, the solubility is the dissolved amount per volume that the medium holds. By hepatocyte CLint is commonly meant a measure of how fast metabolising enzymes remove a compound, apart from limits set by blood flow. By microsomal CLint is commonly meant a measure of how fast metabolising enzymes remove a compound, apart from limits set by blood flow. A higher microsomal CLint goes with faster metabolism. As usually defined, the EC50 is the concentration needed to bring the measured effect to its halfway point. Turning to `COc1cc(C#N)c(O[C@H]2CC[C@@](C)(C(=O)O)CC2)cc1C(=O)N[C@@H]1[C@H]2CC[C@H](C2)[C@@H]1C(=O)NCC(C)(C)O` [Example 76], in data set [1], the “Test B Human Plasma Protein Binding (% free)” value was determined as 47 % free. In “Solubility (Test F)”, this compound returned a solubility of 790 µM (≈ 428 µg/mL). The compound also yielded a hepatocyte CLint in data set [2] of 12 µL/min/1e6 cells. In data set [3], this compound registered a microsomal CLint of less than 3 µL/min/mg. Moreover, on human RXFP1, the “Test A Sinf” value was 100% and the EC50 came out at 41000 nM.
In the case of `COc1cc(C#N)c(O[C@H]2CC[C@@](C)(C(=O)O)CC2)cc1C(=O)N[C@@H]1[C@H]2CC[C@H](C2)[C@@H]1C(=O)NCC1(O)CCCC1` [Example 74], the “Test B Human Plasma Protein Binding (% free)” value in data set [1] came to 26 % free. In “Solubility (Test F)”, this compound gave a solubility of 920 µM (≈ 522 µg/mL). Moreover, the hepatocyte CLint in data set [2] came to 10 µL/min/1e6 cells. This compound also yielded a microsomal CLint in data set [3] of less than 3 µL/min/mg. Further, the EC50 on human RXFP1 was more than 5000 nM.
As for `COc1cc(C#N)c(O[C@H]2C[C@@](C)(C(=O)O)C2)cc1C(=O)N[C@@H]1[C@H]2CC[C@H](C2)[C@@H]1C(=O)NCC1(C)CCC1` [Example 148, (1S,3s)-3-(2-cyano-4-methoxy-5-(((1S,2R,3S,4R)-3-(((1-methylcyclobutyl)methyl)carbamoyl)bicyclo[2.2.1]heptan-2-yl)carbamoyl)phenoxy)-1-methylcyclobutane-1-carboxylic acid], the “Test B Human Plasma Protein Binding (% free)” value in data set [1] was 0.59 % free. For the same compound, in “Solubility (Test F)”, the concentration in solution (solubility) came to 890 µM (≈ 466 µg/mL). This compound also displayed a hepatocyte CLint in data set [2] of 18 µL/min/1e6 cells. The microsomal CLint in data set [3] was 7.4 µL/min/mg. The EC50 at human RXFP1 was more than 5000 nM.
`COc1cc(F)c(-c2ccc(C(=O)O)cc2)cc1C(=O)N[C@H]1[C@@H](C(=O)Nc2cccc(S(=O)(=O)C(F)(F)F)c2)[C@@H]2C=C[C@H]1C2` (racemic) [Example 224, rac-2′-Fluoro-4′-methoxy-5′-(((1R,2R,3S,4S)-3-((3-((trifluoromethyl)sulfonyl)phenyl)carbamoyl)bicyclo[2.2.1]hept-5-en-2-yl)carbamoyl)-[1,1′-biphenyl]-4-carboxylic acid]: in data set [1], the “Test B Human Plasma Protein Binding (% free)” value was 0.16 % free. In “Solubility (Test F)”, this compound registered a solubility of 870 µM (≈ 550 µg/mL). In data set [2], the hepatocyte CLint came to 19 µL/min/1e6 cells. In data set [3], this compound returned a microsomal CLint of 6.3 µL/min/mg. Further, at human RXFP1, the “Test A Sinf” value amounted to 92% and the EC50 was determined as 190 nM.
Consider `COc1cc(F)c(-c2cccc(CC(=O)O)c2)cc1C(=O)N[C@@H]1CCC[C@@H]1C(=O)Nc1cccc(S(=O)(=O)C(F)(F)F)c1` [Example 318], for which, in data set [1], the “Test B Human Plasma Protein Binding (% free)” value was 0.55 % free. For the same compound, in “Solubility (Test F)”, the concentration in solution (solubility) came to 710 µM (≈ 442 µg/mL). In data set [2], the hepatocyte CLint was found to be 37 µL/min/1e6 cells. Moreover, in data set [3], the microsomal CLint was 13 µL/min/mg. At human RXFP1, the “Test A Sinf” value came out at 89% and the EC50 came out at 600 nM.
Take `COc1cc(F)c(C2=CCC(C(=O)O)CC2)cc1C(=O)N[C@@H]1[C@H]2CC[C@H](C2)[C@@H]1C(=O)Nc1cccc(S(=O)(=O)C(F)(F)F)c1` (mixture of isomers) [Example 267, (RS)-2′-Fluoro-4′-methoxy-5′-(((1S,2R,3S,4R)-3-((3-((trifluoromethyl)sulfonyl)phenyl)carbamoyl)bicyclo[2.2.1]heptan-2-yl)carbamoyl)-2,3,4,5-tetrahydro-[1,1′-biphenyl]-4-carboxylic acid]: the “Test B Human Plasma Protein Binding (% free)” value in data set [1] is listed as 0.39 % free. In the data set “Solubility (Test F)”, this compound returned a solubility of 680 µM (≈ 434 µg/mL). Moreover, the hepatocyte CLint in data set [2] stood at 14 µL/min/1e6 cells. This compound also registered a microsomal CLint in data set [3] of 32 µL/min/mg. Besides, at human RXFP1, the “Test A Sinf” value is recorded as 93% and the EC50 is more than 350 nM.
As for `COc1cc(C#N)c(O[C@H]2CC[C@@](C)(C(=O)O)CC2)cc1C(=O)N[C@@H]1[C@H]2CC[C@H](C2)[C@@H]1C(=O)N[C@]12CC3CC(C[C@@](O)(C3)C1)C2` [Example 113], the “Test B Human Plasma Protein Binding (% free)” value in data set [1] is 28 % free. The amount in solution in “Solubility (Test F)” (solubility) came to 950 µM (≈ 589 µg/mL). In data set [2], this compound showed a hepatocyte CLint of 30 µL/min/1e6 cells. In data set [3], this compound yielded a microsomal CLint of 11 µL/min/mg. The EC50 on human RXFP1 is more than 9400 nM.
Regarding `COc1cc(F)c(-c2ccc3c(c2)OC[C@H]3CC(=O)O)cc1C(=O)N[C@@H]1[C@H]2CC[C@H](C2)[C@@H]1C(=O)Nc1cccc(S(=O)(=O)C(F)(F)F)c1` [Example 253], the “Test B Human Plasma Protein Binding (% free)” value in data set [1] is recorded as less than 0.32 % free. The solubility in “Solubility (Test F)” was more than 1000 µM. The same compound showed a hepatocyte CLint in data set [2] of 8.8 µL/min/1e6 cells. For the same compound, the microsomal CLint in data set [3] was determined as 24 µL/min/mg. Further, on human RXFP1, the “Test A Sinf” value came to 102% and the EC50 is 31 nM.
Consider `COc1cc(C#N)c(O[C@H]2CC[C@@](C)(C(=O)O)CC2)cc1C(=O)N[C@@H]1[C@H]2CC[C@H](C2)[C@@H]1C(=O)NCC1CCCCCC1` [Example 82], for which the “Test B Human Plasma Protein Binding (% free)” value in data set [1] stood at 2.5 % free. The compound further came in with a solubility in the data set “Solubility (Test F)” of 330 µM (≈ 191 µg/mL). For the same compound, in data set [2], the hepatocyte CLint was found to be 41 µL/min/1e6 cells. In data set [3], the microsomal CLint amounted to 54 µL/min/mg. At human RXFP1, the “Test A Sinf” value is listed as 114% and the EC50 is 32 nM.
Consider `COc1cc(F)c(O[C@H]2CC[C@@H](C(=O)O)CC2)cc1C(=O)N[C@@H]1[C@H]2CC[C@H](C2)[C@@H]1C(=O)Nc1cccc(I)c1` [Example 185], for which the “Test B Human Plasma Protein Binding (% free)” value in data set [1] came to 0.37 % free. Besides, the solubility in the data set “Solubility (Test F)” stood at 270 µM (≈ 176 µg/mL). The hepatocyte CLint in data set [2] stood at 83 µL/min/1e6 cells. The microsomal CLint in data set [3] was determined as 48 µL/min/mg. Moreover, at human RXFP1, the “Test A Sinf” value is 108% and the EC50 was found to be 200 nM.
In the case of `COc1cc(F)c(O[C@H]2CC[C@@](C)(C(=O)O)CC2)cc1C(=O)Nc1cc(C)c(C)cc1C(=O)NCC1(C)CCC1` [Example 212, (1s,4s)-4-(5-((4,5-Dimethyl-2-(((1-methylcyclobutyl)methyl)carbamoyl)phenyl)carbamoyl)-2-fluoro-4-methoxyphenoxy)-1-methylcyclohexane-1-carboxylic acid], the “Test B Human Plasma Protein Binding (% free)” value in data set [1] is less than 2.7 % free. This compound displayed a solubility in “Solubility (Test F)” of 4 µM (≈ 2.22 µg/mL). Also, the hepatocyte CLint in data set [2] stood at 17 µL/min/1e6 cells. In addition, in data set [3], the microsomal CLint was 6.5 µL/min/mg. At human RXFP1, the “Test A Sinf” value stood at 134% and the EC50 amounted to 310 nM.
Take `CCC(CC)CNC(=O)[C@H]1[C@@H]2CC[C@@H](C2)[C@H]1NC(=O)c1cc(O[C@H]2CC[C@@](C)(C(=O)O)CC2)c(C#N)cc1OC` [Example 88]: the “Test B Human Plasma Protein Binding (% free)” value in data set [1] was 4.4 % free. Moreover, the solubility in the data set “Solubility (Test F)” was 610 µM (≈ 338 µg/mL). In data set [2], this compound gave a hepatocyte CLint of 26 µL/min/1e6 cells. This compound had a microsomal CLint in data set [3] of 40 µL/min/mg. Also, at human RXFP1, the “Test A Sinf” value came to 124% and the EC50 worked out at 33 nM.
On to `COc1cc(F)c(-c2ccc(C(=O)O)c(F)c2)cc1C(=O)N[C@@H]1[C@H]2CC[C@H](C2)[C@@H]1C(=O)Nc1cccc(S(=O)(=O)C(F)(F)F)c1` [Example 236, 2′,3-Difluoro-4′-methoxy-5′-(((1S,2R,3S,4R)-3-((3-((trifluoromethyl)sulfonyl)phenyl)carbamoyl)bicyclo[2.2.1]heptan-2-yl)carbamoyl)-[1,1′-biphenyl]-4-carboxylic acid], for which the “Test B Human Plasma Protein Binding (% free)” value in data set [1] was 0.50 % free. Besides, in the data set “Solubility (Test F)”, the solubility is more than 1000 µM. In data set [2], this compound displayed a hepatocyte CLint of 14 µL/min/1e6 cells. This compound also had a microsomal CLint in data set [3] of 13 µL/min/mg. At human RXFP1, the “Test A Sinf” value is on record as 103% and the EC50 is 210 nM.

The record behind these values is patent publication US11667602B2, “Compounds and their use” (AstraZeneca AB, priority 2020, dated 2023).
